Broadly, the pKi is −log10 of the Ki, conventionally taken in molar units.

pKi: −log10 of the molar value. Like-named read-outs stand apart in the source and are kept apart here.

Holding throughout (set-up): species or system SD rats
The target in one assay is T1, serotonin S2 receptor (Rattus norvegicus, UniProt P14842).
T1 construct: The receptor fraction prepared from the cortex was molten and suspended; from tissue; host or cells: cerebral cortex of SD rats (membrane fraction)
The assay is described as follows: serotonin S2 receptor binding test ([3H] Ketanserin Binding Test). The conditions noted are these: 1 nM [3H] Ketanserin, rat cortex, 37° C., 15 minutes. In a few lines:
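Rat (SD, 6–8 weeks) cortical membranes in 50 mM Tris-HCl pH 7.4 were incubated with 1 nM [3H]ketanserin for 15 min at 37 °C, then filtered and counted. Nonspecific binding was defined with methysergide. IC50 was obtained by probit analysis and converted to Ki using the Scatchard-derived Kd.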

A further assay addresses adrenergic α1 receptor. Nature of the assay: adrenergic α1 receptor binding test ([3H] Prazosin Binding Test). The conditions noted are these: 1 nM [3H] Prazosin, rat cortex, room temperature, 60 minutes. In a few lines: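 Rat (SD, 6-8 weeks) cerebral cortex membranes in 50 mM Tris-HCl pH 7.4 incubated with 1 nM [3H]prazosin for 60 min at room temperature; nonspecific binding defined with phentolamine. IC50 by probit method, converted to Ki using radioligand concentration and Scatchard-derived Kd.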

Another assay concerns the target T2, dopamine D2 receptor (Rattus norvegicus, UniProt P61169).
T2 construct: the receptor fraction prepared from the corpus striatum was molten and suspended; from tissue; host or cells: corpus striatum of SD rats (membrane fraction)
The assay is described as follows: dopamine D2 receptor binding test ([3H] Spiperone Binding Test). The conditions noted are these: 1 nM [3H] Spiperone, rat corpus striatum, room temperature, 60 minutes. The procedure, abridged: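 Rat (SD, 6–8 weeks) corpus striatum membranes in 50 mM Krebs-Tris pH 7.4 were incubated with 1 nM [3H]spiperone at room temperature for 60 minutes, with nonspecific binding defined by excess spiperone. IC50 came from probit analysis; Ki was derived using radioligand concentration and Scatchard Kd.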

Where [1] appears, read: read-out: Ki value, dopamine D2 receptor.

T1 sequence (P14842 whole entry): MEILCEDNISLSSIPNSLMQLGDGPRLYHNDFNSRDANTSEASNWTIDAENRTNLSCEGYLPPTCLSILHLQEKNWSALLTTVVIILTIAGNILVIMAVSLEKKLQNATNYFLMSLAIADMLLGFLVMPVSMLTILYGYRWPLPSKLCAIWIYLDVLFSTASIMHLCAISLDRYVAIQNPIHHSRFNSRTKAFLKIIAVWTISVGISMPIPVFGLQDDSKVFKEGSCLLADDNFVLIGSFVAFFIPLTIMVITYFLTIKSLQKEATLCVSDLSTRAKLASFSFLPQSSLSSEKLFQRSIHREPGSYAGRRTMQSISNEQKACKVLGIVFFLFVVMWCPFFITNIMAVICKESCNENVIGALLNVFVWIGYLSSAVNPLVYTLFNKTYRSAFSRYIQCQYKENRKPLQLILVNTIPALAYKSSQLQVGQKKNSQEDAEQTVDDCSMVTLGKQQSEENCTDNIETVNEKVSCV
T2 sequence (P61169 whole entry): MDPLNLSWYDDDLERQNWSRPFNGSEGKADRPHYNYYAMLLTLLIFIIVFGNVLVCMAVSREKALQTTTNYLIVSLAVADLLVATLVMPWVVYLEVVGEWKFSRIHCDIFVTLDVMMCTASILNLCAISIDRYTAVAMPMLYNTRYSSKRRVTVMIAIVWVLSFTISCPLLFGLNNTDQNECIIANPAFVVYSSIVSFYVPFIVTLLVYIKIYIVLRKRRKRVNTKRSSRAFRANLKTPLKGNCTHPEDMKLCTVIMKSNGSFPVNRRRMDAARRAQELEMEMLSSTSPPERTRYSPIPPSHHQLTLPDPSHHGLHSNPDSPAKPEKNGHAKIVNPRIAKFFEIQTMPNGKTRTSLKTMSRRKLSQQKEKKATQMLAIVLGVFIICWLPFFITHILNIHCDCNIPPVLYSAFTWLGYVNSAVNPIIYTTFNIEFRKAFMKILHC

`CCC(F)c1cc(N2CCN(CC)CC2)cc(-c2ccccc2C)c1C#N` (stereo not drawn) [Example 164, 1-Ethyl-4-[3-(2-tolyl)-4-cyano-5-(1-fluoropropyl)]phenylpiperazine]: the results for the pKi at serotonin S2 receptor, at adrenergic α1 receptor and at dopamine D2 receptor (setting [1]) were 7.92, less than 6.00 and 8.79, respectively.
For `C=CCOCc1cc(N2CCN(CC)CC2)cc(-c2ccccc2C)c1Cl` [Example 175, 1-Ethyl-4-[3-(2-tolyl)-4-chloro-5-allyloxymethyl]phenylpiperazine] the same measures were less than 7.00, less than 6.00 and 7.53.
Turning to `CCCS(=O)(=O)Nc1cc(N2CCN(CC)CC2)cc(-c2ccc(Cl)cc2Cl)c1Cl` [Example 189, 1-Ethyl-4-[3-(2,4-dichlorophenyl)-4-chloro-5-propanesulfonyamino]phenylpiperazine], the pKi was less than 7.00 on serotonin S2 receptor, 7.49 on adrenergic α1 receptor and 8.82 at dopamine D2 receptor (setting [1]).
For `CCN1CCN(c2cc(-c3ccccc3C)c(Cl)c(C(F)CC(C)C)c2)CC1` (stereo not drawn) [Example 51, 1-Ethyl-4-[3-(2-tolyl)-4-chloro-5-(1-fluoro-3-methylbutyl)]phenylpiperazine] the same measures were 6.79, less than 6.00 and 7.57.
The corresponding values for `CCCS(=O)(=O)Nc1cc(N2CCN(CC)CC2)cc(-c2ccccc2C#N)c1Cl` [Example 197, 1-Ethyl-4-[3-(2-cyanophenyl)-4-chloro-5-propanesulfonylamino]phenylpiperazine] are 8.05, 7.50 and 8.85.
With `CCN1CCN(c2cc(C(=O)Cc3ccncc3)c(OC)c(-c3ccccc3)c2)CC1` [Example 103, 1-Ethyl-4-[3-phenyl-4-methoxy-5-(4-pyridyl)acetyl]phenylpiperazine], the pKi at serotonin S2 receptor was 8.18; at adrenergic α1 receptor it was less than 6.00; on dopamine D2 receptor (setting [1]), 7.00.
On to `CCOCc1cc(N2CCN(CC)CC2)cc(-c2ccccc2C)c1Cl` [Example 173, 1-Ethyl-4-[3-(2-tolyl)-4-chloro-5-ethoxymethyl]phenylpiperazine], for which the values for the negative-log Ki (pKi) on serotonin S2 receptor, at adrenergic α1 receptor and at dopamine D2 receptor (setting [1]) were less than 6.00, less than 6.00 and 7.72, respectively.
With `CCC(F)c1cc(N2CCN(C)CC2)cc(-c2ccccc2Cl)c1Cl` (stereo not drawn) [Example 22, 1-Methyl-4-[3-(2-chlorophenyl)-4-chloro-5-(1-fluoropropyl)]phenylpiperazine], the pKi at serotonin S2 receptor was 7.72; on adrenergic α1 receptor, 6.09; on dopamine D2 receptor (setting [1]), 8.55.
For `CCCCS(=O)(=O)Nc1cc(N2CCN(C)CC2)cc(-c2ccccc2Cl)c1Cl` [Example 36, 1Methyl-4-[3-(2-chlorophenyl)-4-chloro-5-butanesulfonylamino]phenylpiperazine] the same measures were 8.39, 7.60 and 8.90.
The corresponding values for `CCN1CCN(c2cc(-c3ccccc3)c(O)c(-c3ccccc3)c2)CC1` [Example 58, 1-Ethyl-4-(3,5-diphenyl-4-hydroxy)phenylpiperazine] are less than 6.00, 6.54 and less than 6.00.
On to `C/C=C/c1cc(N2CCN(CC)CC2)cc(-c2ccccc2)c1OC` [Example 100, 1-Ethyl-4-[3-phenyl-4-methoxy-5-(1-propenyl)]phenylpiperazine hydrochloroide], for which the pKi at serotonin S2 receptor is 6.08; at adrenergic α1 receptor it was 6.07; at dopamine D2 receptor (setting [1]), 7.08.
For `CCN1CCN(c2cc(-c3ccccc3)c(OC)c(C(F)Cc3ccncc3)c2)CC1` (stereo not drawn) [Example 121, 1-Ethyl-4-{3-phenyl-4-methoxy-5-[1-fluoro-2-(4-pyridyl)ethyl]}phenylpiperazine] the same measures were 6.77, 6.51 and 7.96.
Turning to `CCN1CCN(c2cc(-c3ccccc3)c(OC)c(C(C)(C)F)c2)CC1` [Example 86, 1-Ethyl-4-[3-phenyl-4-methoxy-5-(1-fluoroisopropyl)]phenylpiperazine], the pKi on serotonin S2 receptor was 7.53; on adrenergic α1 receptor it was less than 6.00; on dopamine D2 receptor (setting [1]), 7.98.
On to `CCN1CCN(c2cc(CO)c(OC)c(-c3ccccc3)c2)CC1` [Example 102, 1-Ethyl-4-(3-phenyl-4-methoxy-5-hydroxymethyl)phenylpiperazine], for which the values for the pKi on serotonin S2 receptor, on adrenergic α1 receptor and on dopamine D2 receptor (setting [1]) were less than 6.00, 6.28 and less than 6.00, respectively.
`CCN1CCN(c2cc(-c3ccccc3)c(OC)c([S+]([O-])Cc3ccccc3)c2)CC1` (stereo not drawn) [Example 119, 1-Ethyl-4-(3-phenyl-4-methoxy-5-benzylsulfinyl)phenylpiperazine]: the pKi on serotonin S2 receptor was 7.46; on adrenergic α1 receptor it was less than 6.00; on dopamine D2 receptor (setting [1]), 7.45.
Regarding `CCC(F)c1cc(N2CCN(CC)CC2)cc(-c2ccccc2CF)c1Cl` (stereo not drawn) [Example 208, 1-Ethyl-4-[3-(2-fluoromethylphenyl)-4-chloro-5-(1-fluoropropyl)]phenylpiperazine], the results for the pKi at serotonin S2 receptor, on adrenergic α1 receptor and on dopamine D2 receptor (setting [1]) were 7.79, 5.62 and 8.46, respectively.
As for `CCN1CCN(c2cc(NS(=O)(=O)CC(F)(F)F)c(Cl)c(-c3ccccc3Cl)c2)CC1` [Example 163, 1-Ethyl-4-[3-(2-chlorophenyl)-4-chloro-5-(2,2,2-trifluoroethyl)sulfonylamino]phenylpiperazine], the pKi on serotonin S2 receptor was 7.20; at adrenergic α1 receptor, 6.71; on dopamine D2 receptor (setting [1]) it was 7.99.
For `COc1c(C(=O)Cc2ccccc2)cc(N2CCN(Cc3ccccc3)CC2)cc1-c1ccccc1` [Example 126, 1-Benzyl-4-(3-phenyl-4-methoxy-5-phenylacetyl)phenylpiperazine] the same measures were 7.56, less than 6.00 and 7.26.
As to `CCNS(=O)(=O)c1cc(N2CCN(CC)CC2)cc(-c2ccccc2)c1OC` [Example 123, 1-Ethyl-4-(3-phenyl-4-methoxy-5-ethylaminofonyl)phenylpiperazine], the pKi at serotonin S2 receptor was 7.75; at adrenergic α1 receptor it was less than 6.00; on dopamine D2 receptor (setting [1]), 7.57.
As for `CCCS(=O)(=O)c1cc(N2CCN(CC)CC2)cc(-c2ccccc2C)c1Cl` [Example 159, 1-Ethyl-4-[3-(2-tolyl)-4-chloro-5-propanesulfonyl]phenylpiperazine], the pKi is 8.06 at serotonin S2 receptor, 6.22 on adrenergic α1 receptor and 8.41 on dopamine D2 receptor (setting [1]).
As to `CCN1CCN(c2cc(C(=O)CC3CC3)c(OC)c(-c3ccccc3)c2)CC1` [Example 108, Ethyl-4-(3-phenyl-4-methoxy-5-cyclopropaneacetyl)phenylpiperazine], the pKi at serotonin S2 receptor was 8.40; at adrenergic α1 receptor it was 6.39; at dopamine D2 receptor (setting [1]), 6.79.
For `CCN1CCN(c2cc(-c3ccccc3)c(OC)c(S(=O)(=O)CCCOc3ccc(F)cc3)c2)CC1` [Example 181, 1-Ethyl-4-{3-phenyl-4-methoxy-5-[3-(4-fluorophenoxy)propane]sulfonyl}phenylpiperazine] the same measures were 9.30, less than 7.00 and 7.58.
Take `CCCC(F)c1cc(N2CCN(CC)CC2)cc(-c2ccccc2Cl)c1Cl` (stereo not drawn) [Example 54, 1-Ethyl-4-[3-(2-chlorophenyl)-4-chloro-5-(1-fluorobutyl)]phenylpiperazine]: the pKi on serotonin S2 receptor is 7.43; on adrenergic α1 receptor it was less than 6.00; at dopamine D2 receptor (setting [1]), 8.22.
For the compound `CCC(F)c1cc(-c2ccccc2)cc(N2CCN(CC)CC2)c1` (stereo not drawn) [Example 129, 1-Ethyl-4-[3-phenyl-5-(1-fluoropropyl)]phenylpiperazine], the pKi on serotonin S2 receptor was 7.46; on adrenergic α1 receptor, 7.40; on dopamine D2 receptor (Ki value, dopamine D2 receptor), 8.73.
In the case of `CCC(F)c1cc(N2CCN(CC)CC2)cc(-c2ccccc2C)c1Cl` (stereo not drawn) [Example 131, 1-Ethyl-4-[3-(2-tolyl)-4-chloro-5-(1-fluoropropyl)]phenylpiperazine], the pKi on serotonin S2 receptor was 7.68; on adrenergic α1 receptor, less than 6.00; at dopamine D2 receptor (setting [1]), 8.48.
With `CCCc1cc(N2CCN(CC)CC2)cc(-c2cccc(F)c2)c1OC` [Example 101, 1-Ethyl-4-[3-(3-fluorophenyl)-4-methoxy-5-propyl]phenylpiperazine], the pKi at serotonin S2 receptor was 6.58; at adrenergic α1 receptor it was less than 6.00; on dopamine D2 receptor (setting [1]) it was 6.93.
The corresponding values for `CCS(=O)(=O)Nc1cc(N2CCN(C)CC2)cc(-c2ccccc2Cl)c1Cl` [Example 34, 1-Methyl-4-[3-(2-chlorophenyl)-4-chloro-5-ethanesulfonylamino]phenylpiperazine] are 8.11, 7.59 and 9.43.
For `CCN1CCN(c2cc(CCCC#N)c(OC)c(-c3ccccc3)c2)CC1` [Example 71, 1-Ethyl-4-[3-phenyl-4-methoxy-5-(3-cyanopropyl)]phenylpiperazine] the same measures were 7.04, 6.88 and 7.83.
As to `CCC(C)c1cc(N2CCN(CC)CC2)cc(-c2ccccc2)c1Cl` (stereo not drawn) [Example 147, 1-Ethyl-4-[3-phenyl-4-chloro-5-(1-methylpropyl)]phenylpiperazine], the negative-log Ki (pKi) is 7.82 at serotonin S2 receptor, 7.48 on adrenergic α1 receptor and 9.35 at dopamine D2 receptor (setting [1]).

These data come from patent US6281214A, “Biphenyl derivatives” (Eisai Co., Ltd, priority 1994, dated 2001).
